Data published in patent publication US20180235949A1 (priority 2015, published 2018).
Like-named read-outs stand apart in the source and are kept apart here.

Experiments:
[1] = molecular target: T1, α2B (h) (Homo sapiens, UniProt P18089); assay: α2B (h) (antagonist radioligand) binding; details: for nH: α2B (h) (antagonist radioligand)
T1 sequence (P18089 1-450): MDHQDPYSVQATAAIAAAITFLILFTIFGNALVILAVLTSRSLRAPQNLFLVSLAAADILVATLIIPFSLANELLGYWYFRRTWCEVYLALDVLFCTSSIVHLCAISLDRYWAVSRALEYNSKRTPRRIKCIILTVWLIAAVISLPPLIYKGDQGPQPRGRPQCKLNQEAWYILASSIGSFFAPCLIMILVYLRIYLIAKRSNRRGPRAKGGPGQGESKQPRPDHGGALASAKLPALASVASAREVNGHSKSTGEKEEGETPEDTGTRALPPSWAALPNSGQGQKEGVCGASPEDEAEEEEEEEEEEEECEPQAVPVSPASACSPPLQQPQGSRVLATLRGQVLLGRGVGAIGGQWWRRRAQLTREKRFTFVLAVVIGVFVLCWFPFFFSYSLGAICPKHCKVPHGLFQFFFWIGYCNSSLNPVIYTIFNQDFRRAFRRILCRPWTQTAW
Procedure: (§1) Representative compounds were tested to determine IC50 or EC50 in receptor functional assays. One or more of the procedures disclosed in the following references were used: Devedjian, J. C. et al., Eur. J. Pharmacol., 1994, 252, 43-49; Wang, J. B. et al., FEBS Lett., 1994, 338, 217-222; Simonin, F. et al., Mol. Pharmacol., 1994, 46, 1015-1021; Meng, F. et al., Proc. Natl. Acad. Sci. U.S.A., 1993, 90, 9954-9958; Avidor-Reiss, T. et al., FEBS Lett., 1995, 361, 70-74; Eason, M. G. et al., J. Biol. Chem., 1992, 267, 15795-15801; Law, P. Y. et al., Mol. Pharmacol., 1993, 43, 684-693. In each experiment and if applicable, the respective reference compound was tested concurrently with the test compounds. Compound binding was calculated as a % inhibition of the binding of a radioactively labeled ligand specific for each target. Cellular agonist effect was calculated as a % of control response to a known reference agonist for each target and cellular antagonist effect was calculated as a % inhibition of control reference agonist response for each target. Only the calculable IC50 and EC50 are reported below.

[2] = molecular target: T1, α2B (h); assay: α2B (h) (antagonist effect) cellular functional assay; format: cell-based
Procedure: as §1

[3] = molecular target: κ (KOP) (Rattus norvegicus, UniProt P34975); format: binding
κ (KOP), sequence (P34975 whole entry): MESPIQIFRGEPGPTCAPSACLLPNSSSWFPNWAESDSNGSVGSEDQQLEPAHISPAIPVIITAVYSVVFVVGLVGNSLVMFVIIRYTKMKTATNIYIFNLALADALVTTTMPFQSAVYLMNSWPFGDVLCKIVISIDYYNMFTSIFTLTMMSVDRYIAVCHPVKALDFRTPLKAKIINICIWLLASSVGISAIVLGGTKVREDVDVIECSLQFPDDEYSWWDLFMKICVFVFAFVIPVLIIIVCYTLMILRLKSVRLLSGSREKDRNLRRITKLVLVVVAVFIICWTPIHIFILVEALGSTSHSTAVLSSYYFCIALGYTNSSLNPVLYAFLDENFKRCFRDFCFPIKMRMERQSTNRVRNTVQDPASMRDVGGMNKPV

[4] = molecular target: T2, μ (MOP) (h) (Homo sapiens, UniProt P35372); format: cell-based
T2 sequence (P35372 whole entry): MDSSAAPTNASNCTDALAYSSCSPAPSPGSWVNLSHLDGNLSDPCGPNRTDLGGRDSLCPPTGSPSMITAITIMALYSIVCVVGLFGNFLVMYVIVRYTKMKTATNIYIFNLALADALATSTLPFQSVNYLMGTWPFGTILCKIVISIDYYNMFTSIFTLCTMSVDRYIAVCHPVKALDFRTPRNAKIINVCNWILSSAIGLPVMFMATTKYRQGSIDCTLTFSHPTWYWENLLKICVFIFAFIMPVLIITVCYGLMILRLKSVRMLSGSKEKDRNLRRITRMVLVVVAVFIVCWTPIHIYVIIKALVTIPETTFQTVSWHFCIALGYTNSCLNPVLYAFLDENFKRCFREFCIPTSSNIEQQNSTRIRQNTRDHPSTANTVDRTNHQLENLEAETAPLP

[5] = test system: MDR1-MDCK cells; assay: MDR1-MDCK permeability and P-gp substrate identification (bi-directional); format: in vitro ADME, canine; details: 10 μM, MDR1-MDCK, pH 7.4
Procedure: (§2) Cells were then incubated with HBSS at the desired pH in both apical and basolateral compartments for 40 min to stabilize physiological parameters.
(§3) The fluorescent integrity marker lucifer yellow was also included in the dosing solution. […] Analytical standards were prepared from test compound DMSO dilutions and transferred to buffer, maintaining a 1% v/v DMSO concentration.
(§4) For assessment of A-B permeability, HBSS was removed from the apical compartment and replaced with test compound dosing solution. […] For assessment of B-A permeability, HBSS was removed from the companion plate and replaced with test compound dosing solution. […] Test compound permeability was assessed in duplicate. Compounds of known permeability characteristics were run as controls on each assay plate. […] Cyprotex generic analytical conditions were used. The starting concentration (C0) was determined from the dosing solution and the experimental recovery calculated from C0 and both apical and basolateral compartment concentrations.
(§5) The integrity of the monolayer throughout the experiment was checked by monitoring lucifer yellow permeation using fluorimetric analysis.

[6] = test system: P-glycoprotein (MDR1); assay: as above; format: in vitro ADME, canine; details: dog, MDCK-MDR1, pH 7.4; minus inhibitor (no cyclosporin A)
Procedure: as §2, §3, §4, §5

[7] = molecular target: T3, CYP2D6 (Homo sapiens, UniProt P10635); assay: Time dependent inhibition of CYP2D6 (dextromethorphan; IC50 shift); format: in vitro ADME
T3 construct: from tissue
T3 sequence (P10635 whole entry): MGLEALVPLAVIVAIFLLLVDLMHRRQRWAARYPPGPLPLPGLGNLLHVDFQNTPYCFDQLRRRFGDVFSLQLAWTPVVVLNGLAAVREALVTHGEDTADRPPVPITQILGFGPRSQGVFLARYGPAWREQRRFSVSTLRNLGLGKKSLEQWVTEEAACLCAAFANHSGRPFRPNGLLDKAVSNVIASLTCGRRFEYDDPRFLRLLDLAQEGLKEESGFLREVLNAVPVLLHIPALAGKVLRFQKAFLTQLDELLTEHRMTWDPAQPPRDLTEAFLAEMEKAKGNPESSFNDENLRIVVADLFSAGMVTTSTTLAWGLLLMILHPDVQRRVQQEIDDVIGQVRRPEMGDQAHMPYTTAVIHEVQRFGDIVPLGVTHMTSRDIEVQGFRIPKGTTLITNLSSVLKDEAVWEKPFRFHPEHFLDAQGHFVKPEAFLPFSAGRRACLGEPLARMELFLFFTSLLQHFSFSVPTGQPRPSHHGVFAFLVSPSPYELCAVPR
Procedure: Six test compound concentrations (0.1, 0.25, 1, 2.5, 10, 25 μM; final DMSO concentration 0.25%, final microsome concentration 0.5 mg/mL) were either pre-incubated for 30 min in the absence and presence of NADPH or undergo a 0 min pre-incubation. The probe substrate dextromethorphan (5 μM) and NADPH (1 mM) were then added (final DMSO concentration 0.3%) and the samples incubated for 5 min at 37° C. The selective time dependent CYP2D6 inhibitor, paroxetine, was screened alongside the test compounds as a positive control. The reactions were terminated by the addition of an aliquot of the incubation into methanol. The samples were centrifuged at 2500 rpm for 30 min at 4° C., and aliquots of the supernatant are diluted with formic acid in deionised water (final concentration 0.1%) containing internal standard prior to analysis of dextrorphan by LC-MS/MS.

[8] = Binding to plasma proteins; format: in vitro ADME; details: very small species differences
[9] = Bioavailability and stability evaluation; details: summary
[10] = Toxicity in animal models; format: in vivo; details: many animal models, even at high concentrations
[11] = test system: L-DOPA induced dyskinesias; assay: L-DOPA induced dyskinesias, Rodent in vivo model
[12] = test system: L-DOPA induced dyskinesias; assay: L-DOPA induced dyskinesias, Primate in vivo model
[13] = test system: L-dopa-induced dyskinesia; assay: L-dopa-induced dyskinesia, comparison with amantadine; format: in vivo; details: model not specified
[14] = molecular target: CYP1A2 (Homo sapiens, UniProt P05177); details: 0.1-25 μM, human liver microsomes, phenacetin
CYP1A2 (Homo sapiens, UniProt P05177), sequence (P05177 whole entry): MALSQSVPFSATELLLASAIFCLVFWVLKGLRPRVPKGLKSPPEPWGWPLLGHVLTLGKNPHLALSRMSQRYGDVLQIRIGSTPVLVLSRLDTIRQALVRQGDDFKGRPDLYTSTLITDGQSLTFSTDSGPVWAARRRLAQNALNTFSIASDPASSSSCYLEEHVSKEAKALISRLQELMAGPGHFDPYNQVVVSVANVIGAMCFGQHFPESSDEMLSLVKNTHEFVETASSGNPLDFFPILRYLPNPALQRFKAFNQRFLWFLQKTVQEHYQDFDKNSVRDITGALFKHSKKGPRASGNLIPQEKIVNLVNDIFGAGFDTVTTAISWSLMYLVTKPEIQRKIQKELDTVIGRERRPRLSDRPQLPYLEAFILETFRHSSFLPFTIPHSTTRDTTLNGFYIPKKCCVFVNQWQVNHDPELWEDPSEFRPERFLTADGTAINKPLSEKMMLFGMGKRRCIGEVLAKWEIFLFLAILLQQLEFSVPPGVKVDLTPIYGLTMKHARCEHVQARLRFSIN

[15] = molecular target: CYP2B6 (Homo sapiens, UniProt P20813); details: 0.1-25 μM, human liver microsomes, bupropion
CYP2B6 (Homo sapiens, UniProt P20813), sequence (P20813 whole entry): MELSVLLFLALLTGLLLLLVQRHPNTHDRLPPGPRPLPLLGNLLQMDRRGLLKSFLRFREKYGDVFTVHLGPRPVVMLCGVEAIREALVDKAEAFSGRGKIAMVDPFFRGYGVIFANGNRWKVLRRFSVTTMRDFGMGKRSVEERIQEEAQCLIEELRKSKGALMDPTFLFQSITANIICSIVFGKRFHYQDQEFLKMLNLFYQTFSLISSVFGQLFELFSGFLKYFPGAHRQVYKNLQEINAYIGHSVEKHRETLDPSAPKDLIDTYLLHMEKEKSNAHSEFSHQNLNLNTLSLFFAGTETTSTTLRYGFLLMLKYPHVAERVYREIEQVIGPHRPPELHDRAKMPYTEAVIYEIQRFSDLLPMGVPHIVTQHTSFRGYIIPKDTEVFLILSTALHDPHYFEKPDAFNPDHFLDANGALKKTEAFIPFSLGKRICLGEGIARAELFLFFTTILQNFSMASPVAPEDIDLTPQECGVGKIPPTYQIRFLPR

[16] = molecular target: T4, CYP3A4 (Homo sapiens, UniProt P08684); details: 0.1-25 μM, human liver microsomes, substrate midazolam
T4 sequence (P08684 whole entry): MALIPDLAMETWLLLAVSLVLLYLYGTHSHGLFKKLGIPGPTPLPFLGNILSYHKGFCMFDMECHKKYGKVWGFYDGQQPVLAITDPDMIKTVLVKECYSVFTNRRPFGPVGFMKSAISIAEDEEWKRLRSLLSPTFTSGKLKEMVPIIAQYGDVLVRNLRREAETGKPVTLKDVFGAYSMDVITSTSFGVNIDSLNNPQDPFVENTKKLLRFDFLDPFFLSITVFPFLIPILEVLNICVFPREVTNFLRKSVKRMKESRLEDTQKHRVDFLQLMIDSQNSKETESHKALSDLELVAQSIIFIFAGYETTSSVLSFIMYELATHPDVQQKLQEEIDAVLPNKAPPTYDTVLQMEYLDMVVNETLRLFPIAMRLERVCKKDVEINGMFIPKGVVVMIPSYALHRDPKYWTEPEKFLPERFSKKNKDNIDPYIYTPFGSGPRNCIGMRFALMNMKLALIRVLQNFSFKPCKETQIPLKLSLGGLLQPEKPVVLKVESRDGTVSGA

[17] = molecular target: T4, CYP3A4; details: 0.1-25 μM, human liver microsomes, substrate testosterone
[18] = test system: CYP1A2; details: human hepatocytes, 72 hr, any concentration tested
[19] = test system: CYP2B6; details: human hepatocytes, 72 hr, at 100 μM
[20] = test system: CYP3A4; details: human hepatocytes, 72 hr, any concentration tested
[21] = Caco-2 permeability (bi-directional); details: human, Caco-2, pH 6.8
[22] = test system: Caco-2 cells; assay: Caco-2 permeability (bi-directional); details: 10 μM, pH gradient (pH 6.8/7.4)
[23] = Brain tissue binding, equilibrium dialysis, mouse; details: 5 μM
[24] = molecular target: CYP2C8 (Homo sapiens, UniProt P10632); assay: CYP2C8 inhibition, human liver microsomes (paclitaxel); details: 0.1-25 μM
CYP2C8, sequence (P10632 whole entry): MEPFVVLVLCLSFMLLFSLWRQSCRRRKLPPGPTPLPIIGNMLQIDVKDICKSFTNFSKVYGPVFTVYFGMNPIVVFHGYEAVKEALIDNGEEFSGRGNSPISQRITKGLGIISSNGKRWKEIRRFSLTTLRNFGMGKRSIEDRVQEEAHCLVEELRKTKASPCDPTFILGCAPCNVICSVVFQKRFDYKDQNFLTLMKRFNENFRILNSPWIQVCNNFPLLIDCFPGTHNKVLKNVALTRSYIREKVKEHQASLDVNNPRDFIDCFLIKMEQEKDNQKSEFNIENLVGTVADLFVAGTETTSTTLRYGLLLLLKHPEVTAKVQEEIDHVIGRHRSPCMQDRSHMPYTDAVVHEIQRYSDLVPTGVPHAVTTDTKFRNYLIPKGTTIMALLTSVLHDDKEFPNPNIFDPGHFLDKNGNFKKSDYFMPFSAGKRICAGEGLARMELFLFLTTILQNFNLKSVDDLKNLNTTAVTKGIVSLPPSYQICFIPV

[25] = molecular target: CYP2C9 (Homo sapiens, UniProt P11712); assay: CYP2C9 inhibition, human liver microsomes (tolbutamide); details: 0.1-25 μM
CYP2C9, sequence (P11712 whole entry): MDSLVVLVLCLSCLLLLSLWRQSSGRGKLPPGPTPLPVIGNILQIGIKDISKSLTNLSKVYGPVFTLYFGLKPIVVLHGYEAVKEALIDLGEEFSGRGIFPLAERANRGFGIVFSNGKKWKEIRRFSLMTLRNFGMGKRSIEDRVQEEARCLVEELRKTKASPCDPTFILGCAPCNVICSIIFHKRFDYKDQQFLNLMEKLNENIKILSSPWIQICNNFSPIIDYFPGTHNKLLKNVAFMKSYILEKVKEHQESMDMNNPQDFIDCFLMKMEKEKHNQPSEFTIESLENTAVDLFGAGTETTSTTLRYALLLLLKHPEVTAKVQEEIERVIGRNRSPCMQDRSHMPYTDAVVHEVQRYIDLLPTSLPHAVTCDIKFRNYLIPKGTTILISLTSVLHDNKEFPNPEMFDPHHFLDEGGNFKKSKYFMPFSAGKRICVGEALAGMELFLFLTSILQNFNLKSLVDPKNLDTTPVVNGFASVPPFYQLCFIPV

[26] = molecular target: CYP2C19 (Homo sapiens, UniProt P33261); assay: CYP2C19 inhibition, human liver microsomes (mephenytoin); details: up to 25 micromolar
CYP2C19, sequence (P33261 whole entry): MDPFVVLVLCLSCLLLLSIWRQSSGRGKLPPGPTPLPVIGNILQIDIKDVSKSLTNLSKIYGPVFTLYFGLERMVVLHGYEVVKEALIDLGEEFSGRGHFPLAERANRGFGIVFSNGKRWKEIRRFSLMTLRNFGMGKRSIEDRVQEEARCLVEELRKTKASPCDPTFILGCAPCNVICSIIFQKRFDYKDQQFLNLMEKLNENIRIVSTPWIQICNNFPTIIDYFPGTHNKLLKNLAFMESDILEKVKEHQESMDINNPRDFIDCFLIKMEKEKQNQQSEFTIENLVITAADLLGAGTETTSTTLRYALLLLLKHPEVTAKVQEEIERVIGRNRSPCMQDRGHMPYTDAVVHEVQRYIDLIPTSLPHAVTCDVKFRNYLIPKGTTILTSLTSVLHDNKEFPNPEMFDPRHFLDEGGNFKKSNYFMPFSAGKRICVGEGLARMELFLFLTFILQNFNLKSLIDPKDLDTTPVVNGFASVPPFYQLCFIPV

[27] = molecular target: hERG potassium channel (Homo sapiens, UniProt Q12809); assay: hERG channel inhibition, IonWorks automated patch clamp, CHO-hERG cells; details: up to 25 micromolar
[28] = molecular target: T2, μ (MOP) (h); format: binding
[29] = molecular target: T2, μ (MOP) (h); assay: μ (MOP) (h) (agonist effect) cellular functional assay; format: cell-based
Procedure: as §1

[30] = molecular target: δ2 (DOP) (h) (Homo sapiens, UniProt P41143); format: binding
δ2 (DOP) (h), sequence (P41143 whole entry): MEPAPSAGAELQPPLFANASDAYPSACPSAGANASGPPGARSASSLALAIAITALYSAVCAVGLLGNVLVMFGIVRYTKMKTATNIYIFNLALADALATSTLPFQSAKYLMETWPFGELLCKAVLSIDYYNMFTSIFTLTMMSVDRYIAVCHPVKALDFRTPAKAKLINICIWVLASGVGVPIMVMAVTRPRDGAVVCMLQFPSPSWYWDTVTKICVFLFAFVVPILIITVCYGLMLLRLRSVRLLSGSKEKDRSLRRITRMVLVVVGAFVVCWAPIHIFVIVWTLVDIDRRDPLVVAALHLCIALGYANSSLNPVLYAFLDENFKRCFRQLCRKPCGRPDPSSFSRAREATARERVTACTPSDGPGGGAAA

## O=C(CCCCCCCBr)NC1CCN(CCc2ccccc2)CC1 [8-bromo-N-(1-phenethylpiperidin-4-yl)octanamide]
[1]
  IC50: 5.7 µM
  Ki: 3.8 µM
  nH: 0.8
[2]
  IC50: 360 µM
  Kb: 46 µM
[3]
  nH: 0.5
[4]
  nH: 0.4

## CCC(=O)NC1CCN(CCc2ccccc2)CC1 [HCV-3, N-(1-phenethylpiperidin-4-yl)propionamide]
[5]
  permeability in the MDCK assay: highly permeable
[6]
  efflux ratio at 60 min, 10 µM: 1.48
[7]; 25 μM, 30 minute plus NADPH incubation
  CYP2D6 inhibition: approximately 40%
[7]; IC50 shift, 30 min pre-incubation with/without NADPH
  time-dependent CYP2D6 inhibition (conclusion): no evidence of time-dependent CYP2D6 inhibition
[7]; human, microsomes, probe dextromethorphan (5 µM), 0 minute incubation
  IC50 at 5 min: > 25 µM
[7]; human, microsomes, probe dextromethorphan (5 µM), 25 μM, 0 minute incubation
  inhibition at 5 min, 25 µM: ~40%
[8]
  binding to plasma proteins: weak, or no noticeable binding
[9]
  bioavailability: highly bioavailable
[10]
  toxicity: virtually no toxicity
[11]
  inhibition of L-DOPA induced dyskinesias: significant inhibition
[12]
  inhibition of L-DOPA induced dyskinesias: significant inhibition
[13]
  effectiveness compared with amantadine: significantly more effective than amantadine
[14]
  CYP1A2 inhibition: No significant inhibition
[15]
  CYP2B6 inhibition: No significant inhibition
[16]
  CYP3A4 inhibition: No significant inhibition
[17]
  CYP3A4 inhibition: No significant inhibition
[18]
  CYP1A2 mRNA expression: didn't cause a statistically significant change
[19]
  CYP2B6 mRNA expression: slight, yet statistically significant decrease
[20]
  CYP3A4 mRNA expression: didn't cause a statistically significant change
[21]
  efflux ratio at 120 min, 10 µM: 2.7
[22]
  permeability in the Caco-2 assay: highly permeable in both directions
[23]
  binding: no binding at all could be detected
[24]
  CYP2C8 inhibition: No significant inhibition
[25]
  CYP2C9 inhibition: No significant inhibition
[26]
  CYP2C19 IC50: too weak to generate an IC50 value
[27]
  hERG inhibition activity (conclusion): weak or no significant hERG inhibition activity

## CCC(=O)NC1CCN(CCC(=O)OC)CC1 [Methyl 3-(4-propionamidopiperidin-1-yl)propanoate]
[1]
  IC50: 260 µM
  Ki: 180 µM
  nH: 1
[3]
  nH: 0.8
[28]
  nH: 0.5
[29]
  EC50: 290 µM

## CCC(=O)NC1CCN(CCc2cccs2)CC1 [N-(1-(2-(thiophen-2-yl)ethyl)piperidin-4-yl)propionamide]
[1]
  IC50: 11 µM
  Ki: 7.6 µM
  nH: 1.2
[2]
  IC50: 440 µM
  Kb: 57 µM
[30]
  nH: 0.9
[3]
  nH: 0.6
[4]
  nH: 0.6

## O=C(NC1CCN(CCc2ccccc2)CC1)c1ccccc1 [N-(1-phenethylpiperidin-4-yl)benzamide]
[1]
  IC50: 4 µM
  Ki: 0.27 µM
  nH: 1.3
[2]
  IC50: 350 µM
  Kb: 46 µM
[30]
  nH: 0.7
[3]
  nH: 0.6
[28]
  nH: 0.9

## O=C(NC1CCN(CCc2ccccc2)CC1)c1ccco1 [N-(1-phenethylpiperidin-4-yl)furan-2-carboxamide]
[1]
  IC50: 4.6 µM
  Ki: 3 µM
  nH: 0.7
[2]
  IC50: 380 µM
  Kb: 50 µM
[30]
  nH: 1
[3]
  nH: 1.1
[28]
  nH: 0.8

## O=C(NC1CCN(CCc2ccccc2)CC1)c1ccoc1 [N-(1-phenethylpiperidin-4-yl)furan-3-carboxamide]
[1]
  IC50: 3 µM
  Ki: 3 µM
  nH: 0.7
[2]
  IC50: 230 µM
  Kb: 50 µM
[30]
  nH: 1
[3]
  nH: 1.1
[28]
  nH: 0.8
